In patent US10004688B2, “Liposomal mupirocin” (priority 2014, dated 2018):
In brackets after ≈: the same amount, converted by molar mass.

Tests used:
[1] = tested on: gram-positive bacteria, including the methicillin-resistant Staphylococcus aureus (MRSA) and Streptococcus pneumoniae; conditions: gram-positive bacteria incl. MRSA and Streptococcus pneumoniae; cited from earlier work
[2] = tested on: Neisseria gonorrhoeae; conditions: cited from earlier work
[3] = tested on: Group A streptococcus (GAS); test: Mice necrotizing fasciitis model; format: in vivo, Female BALB/c mice
Description: Necrotizing fasciitis model was performed based on a published method [Hidalgo-grass, C. et al. Mechanisms of disease Effect of a bacterial pheromone peptide on host chemokine degradation in group A streptococcal necrotising soft-tissue infections. 363, (2004)]. Specifically the working protocol included:
Female BALB/c mice, 10 g weight and at the age of 3-4 weeks were selected.
1st Day: Bacteria were seeded on blood-agar plates and incubated at 37° C. THY medium was prepared, autoclaved and kept at room temperature.
2nd Day: plates were taken from the incubator and placed at room temperature.
4th Day: bacteria were transferred from the plates to 5 ml THY tube (warmed in the incubator).
5th Day: 2 ml bacteria were transferred from the 5 ml THY tube to 50 ml THY tube. Bacteria were grown to early logarithmic phase (O.D600=0.3-0.4), washed with PBS and suspended in PBS to O.D600=0.8 which correlates to 10^8 bacteria in injected volume of 100 μl. The obtained bacteria volume was divided to vials according to the number of mice in the study. Each dilution was seeded on blood agar plates and counting colonies on the day after.
On the 5th day, mice hair was removed from the center of mice back and bacteria were injected subcutaneously.
Disease condition was followed according to the Table 2A below.
Specifically, Group A streptococcus (GAS) injection (0.75×10^8 CFU) was administered to all study groups. The drug was administered by IV injection of 100 μl formulation. Eachliposomal mupirocin dose was 45 mg/kg. Each free mupirocin dose was 50 mg/kg.

[4] = tested on: serum protein; conditions: cited from earlier work
[5] = Mupirocin solubility in buffers and solubilizer solutions; format: physicochemical
Description: Liposomes were prepared using the calcium acetate (CA) gradient method [Clerc S, Barenholz Y. 1995. Loading of amphipathic weak acids into liposomes in response to transmembrane calcium acetate gradients. Biochim Biophys Acta 1240:257-265]. Specifically, lipids in a mole ratio of 55:40:5 HSPC: cholesterol: mPEG DSPE were mechanically hydrated by stirring at 65° C. with 200 mM calcium acetate pH 5.5, at a weight ratio of 1:9. The liposomal dispersion was downsized by stepwise extrusion by the Northern Lipids (Burnaby, BC, Canada) extruder using polycarbonate filters starting with 3 times extrusion through a 400 nm pore size membrane, then 3 times through a 100 nm pore size membrane, and finally 10 times through a 50 nm pore size membrane. Liposomes were then dialyzed using a Cellu Sep regenerated cellulose membrane (Membrane Filtration Products, USA), against a 10% sucrose solution. In the case of HPCD-containing liposomes, lipids were hydrated by 200 mM calcium acetate pH 5.5 containing 15% (w/w) HPCD. Control HPCD liposomes were prepared by hydrating lipids with 15% (w/w) HPCD in phosphate buffer 200 mM pH 6.3. All other preparation steps (downsizing and dialysis) were the same as described above. Remote loading was performed by incubating at 65° C. for 10 min a solution of the drug with the liposome dispersion at a volume ratio of 1:1. Liposomes used for loading were freshly prepared and used within one week. Drug loading solutions were prepared in 200 mM phosphate buffer pH 6.3. High mupirocin concentrations in phosphate buffer pH 6.3 (28 mM) were achieved by vigorous stirring and 10 min sonication in a bath sonicator. Loading was also tested from 1 to 10% (w/w) HPCD solutions in phosphate buffer pH 6.3. High mupirocin concentration (28 mM) in 1% HPCD solution was achieved by vigorous stirring and sonication as described for phosphate buffer. Mupirocin solutions in higher HPCD concentrations (2.5-10%) were prepared by stirring only. Loading was also performed from propylene glycol (PG) and from polyethylene glycol (PEG) 400 solutions. In these cases, a stock solution of 100 mM mupirocin was prepared and diluted to the desired concentration with 200 mM phosphate buffer pH 6.3.
Mupirocin is not freely soluble in aqueous medium. Being a weak acid, its solubility increases with pH. Mupirocin was soluble in phosphate buffer 200 mM pH 6.3 up to a concentration of 15 mM. […] However, high concentrations (≥28 mM) in 1% HPCD required 10 min sonication in order to achieve a clear solution. It should be noted that the chromatographic profile of mupirocin in the different solutions tested was similar to that of a standard solution.

[6] = literature data, free mupirocin; cited from earlier work
[7] = group 2: free drug 50 mg/kg IV 3 h before and 3 and 24 h after GAS injection (150 mg/kg/day), 24 h after challenge
[8] = group 2: free drug 50 mg/kg IV 3 h before and 3 and 24 h after GAS injection (150 mg/kg/day), 48 h after challenge
[9] = group 2: free drug 50 mg/kg IV 3 h before and 3 and 24 h after GAS injection (150 mg/kg/day), 72 h after challenge
[10] = group 2: free drug 50 mg/kg IV 3 h before and 3 and 24 h after GAS injection (150 mg/kg/day), 96 h after challenge

## C/C(=C\C(=O)OCCCCCCCCC(=O)O)C[C@@H]1OC[C@H](C[C@@H]2O[C@H]2[C@@H](C)[C@H](C)O)[C@@H](O)[C@H]1O [Mupirocin, 9-[(E)-4-[(2S,3R,4R,5S)-3,4-dihydroxy-5-[[(2S,3S)-3-[(2S,3S)-3-hydroxybutan-2-yl]oxiran-2-yl]methyl]oxan-2-yl]-3-methylbut-2-enoyl]oxynonanoic acid]
[1]
  activity in vitro: active in vitro
[2]
  MIC: 0.05 µg/mL (≈ 0.0999 µM)
[3]; group 2: free drug 50 mg/kg IV 3 h before and 3 and 24 h after GAS injection (150 mg/kg/day), 24 h after bacteria challenge
  % weight change: −7%
[3]; [7]
  Average mice weight: 12.5 g
  Description of mice movement: Regular
  Eyes appearance: Open eyes
  Hair appearance: Rough hair
  Mice mortality: 0
  Wound appearance: No wound
[3]; [8]
  Average mice weight: 11.7 g
  Description of mice movement: Regular
  Eyes appearance: Open eyes
  Hair appearance: Rough hair
  Mice mortality: 0
[3]; [9]
  Average mice weight: 12.3 g
  Description of mice movement: Regular
  Eyes appearance: Open eyes
  Mice mortality: 0
[3]; [10]
  Average mice weight: 12.7 g
  Description of mice movement: Regular
  Eyes appearance: Open eyes
  Mice mortality: 0
[3]; mice, GAS s.c. challenge, IV treatment
  mortality: did not show mortality
[3]; mice, GAS s.c. challenge, IV treatment, listed as free drug
  development of disease / symptoms: developed the disease 24 h after bacteria challenge
[3]; mice, GAS s.c. challenge, IV treatment, listed as free mupirocin
  development of disease / symptoms: developed the disease symptoms
[4]
  protein binding affinity: 96.5%
[5]; HPCD solution in phosphate buffer, aqueous with cosolvent or surfactant or cyclodextrin, thermodynamic from solid, HPCD solutions of 1-10% w/w in phosphate buffer pH 6.3
  solubility: > 34 mM
[5]; PEG 400, organic solvent or mixture
  solubility: ~100 mM
[5]; aqueous buffer, thermodynamic from solid, phosphate buffer 200 mM pH 6.3, without vigorous stirring and sonication
  solubility: ≤ 15 mM
[5]; aqueous buffer, thermodynamic from solid, phosphate buffer pH 6.3, after vigorous stirring and sonication
  solubility at 10 min: ~28 mM (≈ 14 mg/mL)
[5]; calcium acetate solution, aqueous buffer, calcium acetate 200 mM pH 5.5
  solubility: < 2000 µg/mL
[5]; organic solvent or mixture, PG (propylene glycol)
  solubility: ~100 mM
[5]; pH 5.5
  increase of solubility: not more than 10 fold
[6]
  elimination half-life: 20 to 40 min
